From patent US11390604B2 (Hoffmann-La Roche Inc., priority 2019, dated 2022)
Structures can show the parent of a compound that is named as a salt.

system: Acinetobacter baumannii ATCC 17961; assay: Antimicrobial susceptibility testing: 90% growth inhibitory concentration (IC90) determination; format: cell-based; conditions: ATCC17961, Acinetobacter baumannii ATCC 17961, Iso-Sensitest broth, read-out: ATCC 17961 IC90
In short: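 Broth microdilution in Iso-Sensitest medium, twofold series (e.g. 50 to 0.097 μM final), ~5×10^5 CFU/ml inoculum, 35±2 °C. OD600 read every 20 min over 16 h. IC90 derived from growth inhibition during logarithmic phase.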

SMILES | IC90 [nM]
Cn1c(-c2cn(C3CC3)nc2C(F)(F)F)cnc1C(=O)Nc1ccc(C(=O)NCCCCCCNC(=O)N[C@H]2C[C@@H](N)C2)c(Cl)c1 [Example 262, N-[4-[6-[(3-aminocyclobutyl)carbamoyl-amino]hexylcarbamoyl]-3-chlorophenyl]-5-[1-cyclopropyl-3-(trifluoromethyl)pyrazol-4-yl]-1-methylimidazole-2-carboxamide;formic acid] | 323
Cn1c(-c2cn(C3CC3(F)F)nc2C(F)(F)F)cnc1C(=O)Nc1ccc(C(=O)N[C@H]2[C@@H]3CN(C(=O)N4CCN(CCCN)CC4)C[C@@H]32)c(Cl)c1 (stereo partly drawn) [Example 264, N-(4-(((1R,5S,6s)-3-(4-(3-aminopropyl)piperazine-1-carbonyl)-3-azabicyclo[3.1.0]hexan-6-yl)carbamoyl)-3-chlorophenyl)-5-(1-(2,2-difluorocyclopropyl)-3-(trifluoromethyl)-1H-pyrazol-4-yl)-1-methyl-1H-imidazole-2-carboxamide] | 325
Cn1c(-c2cn(C3CC3(F)F)nc2C(F)(F)F)cnc1C(=O)Nc1ccc(C(=O)NC2[C@H]3CN(C(=O)N[C@H]4C[C@@H](N)C4)C[C@@H]23)c(Cl)c1 (stereo partly drawn) [Example 265, cis-N-(3-aminocyclobutyl)-6-[[2-chloro-4-[[5-[1-(2,2-difluorocyclopropyl)-3-(trifluoromethyl)pyrazol-4-yl]-1-methylimidazole-2-carbonyl]amino]benzoyl]amino]-3-azabicyclo[3.1.0]hexane-3-carboxamide, formate salt] | 328
Cn1c(-c2cn(C3CC3(F)F)nc2C(F)(F)F)cnc1C(=O)Nc1ccc(C(=O)N2C3CCC2CNC3)c(Cl)c1 (stereo not shown) [Example 268, N-(4-(3,8-diazabicyclo[3.2.1]octane-8-carbonyl)-3-chlorophenyl)-5-(1-(2,2-difluorocyclopropyl)-3-(trifluoromethyl)-1H-pyrazol-4-yl)-1-methyl-1H-imidazole-2-carboxamide formate] | 332
Cn1c(-c2cn(CC#N)nc2C(F)(F)F)cnc1C(=O)Nc1ccc(C(=O)N[C@H]2C[C@@H](NC(=O)[C@H]3C[C@H](N)C3)C2)c(Cl)c1 [Example 269, N-[4-[[3-[(3-aminocyclobutanecarbonyl)ami-no]cyclobutyl]carbamoyl]-3-chloro-phenyl]-5-[1-(cyanomethyl)-3-(trifluoromethyl)pyrazol-4-yl]-1-methyl-imidazole-2-carboxamide; formic acid] | 333
Cn1c(-c2cn(CC(F)F)nc2C(F)(F)F)cnc1C(=O)Nc1ccc(C(=O)N2CCN(C(=O)N[C@H]3C[C@@H](N)C3)CC2)c(F)c1 [Example 272, rac-N-((1s,3s)-3-aminocyclobutyl)-4-(4-(5-(1-(2,2-difluoroethyl)-3-(trifluoromethyl)-1H-pyrazol-4-yl)-1-methyl-1H-imidazole-2-carboxamido)-2-fluorobenzoyl)piperazine-1-carboxamide] | 335
Cn1c(-c2cn(CC#N)nc2C(F)(F)F)cnc1C(=O)Nc1ccc(C(=O)N[C@H]2C[C@@H](NC(=O)N[C@@H]3CC[C@H](N)C3)C2)c(Cl)c1 [Example 275, N-[4-[[3-[[(1R,3S)-3-aminocyclopentyl]carbamoylami-no]cyclobutyl]carbamoyl]-3-chloro-phenyl]-5-[1-(cyanomethyl)-3-(trifluoromethyl)pyrazol-4-yl]-1-methyl-imidazole-2-carboxamide; formic acid] | 341

Other lines, results leading:

IC90 [nM] | SMILES
323 | C#CCn1cc(-c2cnc(C(=O)Nc3ccc(C(=O)N4CCN(C(=O)C5CCNCC5)CC4)c(F)c3)n2C)c(C(F)(F)F)n1 [Example 261, N-(3-fluoro-4-(4-(piperidine-4-carbonyl)piperazine-1-carbonyl)phenyl)-1-methyl-5-(1-(prop-2-yn-1-yl)-3-(trifluoromethyl)-1H-pyrazol-4-yl)-1H-imidazole-2-carboxamide]
325 | CCn1cc(-c2cnc(C(=O)Nc3ccc(C(=O)N4CCN(C(=O)[C@H]5[C@@H]6CNC[C@@H]65)CC4)c(Br)c3)n2C)c(C(F)(F)F)n1 [Example 263, N-[3-bromo-4-[4-[rac-(1R,5S)-3-azabicyclo[3.1.0]hexane-6-carbonyl]piperazine-1-carbonyl]phenyl]-5-[1-ethyl-3-(trifluoromethyl)pyrazol-4-yl]-1-methylimidazole-2-carboxamide;hydrochloride]
332 | Cn1c(-c2cn(C3CC3(F)F)nc2C(F)(F)F)cnc1C(=O)Nc1ccc(C(=O)N2CCN(C(=O)C3CCNCC3)CC2)c(Cl)c1 (stereo not shown) [Example 267, N-(3-chloro-4-(4-(piperidine-4-carbonyl)piperazine-1-carbonyl)phenyl)-5-(1-(2,2-difluorocyclopropyl)-3-(trifluoromethyl)-1H-pyrazol-4-yl)-1-methyl-1H-imidazole-2-carboxamide formate]
333 | Cn1c(-c2cn(C3CC3)nc2C(F)(F)F)cnc1C(=O)Nc1ccc(C(=O)N2CCN(C(=O)C(O)CN)CC2)c(Cl)c1 (stereo not shown) [Example 270, N-[4-[4-(3-amino-2-hydroxypropanoyl)piperazine-1-carbonyl]-3-chlorophenyl]-5-[1-cyclopropyl-3-(trifluoromethyl)pyrazol-4-yl]-1-methylimidazole-2-carboxamide;hydrochloride]
336 | Cn1c(-c2cn(C3CC3)nc2C(F)(F)F)cnc1C(=O)Nc1ccc(C(=O)N2CCN(C(=O)[C@H]3CCCCN3)CC2)c(Cl)c1 [Example 273, (R)-N-(3-chloro-4-(4-(piperidine-2-carbonyl)piperazine-1-carbonyl)phenyl)-5-(1-cyclopropyl-3-(trifluoromethyl)-1H-pyrazol-4-yl)-1-methyl-1H-imidazole-2-carboxamide hydrochloride]
338 | Cn1c(-c2cn(C3CCCC3)nc2C(F)(F)F)cnc1C(=O)Nc1ccc(C(=O)N2CCN(C(=O)C3CCNCC3)CC2)c(Cl)c1 [Example 274, N-(3-chloro-4-(4-(piperidine-4-carbonyl)piperazine-1-carbonyl)phenyl)-5-(1-cyclopentyl-3-(trifluoromethyl)-1H-pyrazol-4-yl)-1-methyl-1H-imidazole-2-carboxamide hydrochloride]
343 | Cn1c(-c2cn(CC3CCC3)nc2C(F)(F)F)cnc1C(=O)Nc1ccc(C(=O)N2CCN(C(=O)[C@H]3C[C@H](N)C3)CC2)c(Cl)c1 [Example 276, rac-N-(4-(4-((1r,3r)-3-aminocyclobutane-1-carbonyl)piperazine-1-carbonyl)-3-chlorophenyl)-5-(1-(cyclobutylmethyl)-3-(trifluoromethyl)-1H-pyrazol-4-yl)-1-methyl-1H-imidazole-2-carboxamide hydrochloride]
343 | Cn1c(-c2cn(C3CC3)nc2C(F)(F)F)cnc1C(=O)Nc1ccc(C(=O)N2CCCC(CN)C2)c(Cl)c1 (stereo not shown) [Example 277, N-[4-[3-(aminomethyl)piperidine-1-carbonyl]-3-chlorophenyl]-5-[1-cyclopropyl-3-(trifluoromethyl)pyrazol-4-yl]-1-methylimidazole-2-carboxamide;hydrochloride]

same assay, conditions: Acinetobacter baumannii, ATCC17961, read-out: ATCC 17961 IC90, Acinetobacter baumannii ATCC 17961, Iso-Sensitest broth

SMILES | IC90 [nM]
Cn1c(-c2cn(C3CC3)nc2C(F)(F)F)cnc1C(=O)Nc1ccc(C(=O)N2CCN(C(=O)N[C@@H]3C[C@H](N)C3(C)C)CC2)c(Cl)c1 [Example 266, N-[(1R,3S)-3-amino-2,2-dimethylcyclobutyl]-4-[2-chloro-4-[[5-[1-cyclopropyl-3-(trifluoromethyl)pyrazol-4-yl]-1-methylimidazole-2-carbonyl]amino]benzoyl]pipera-zine-1-carboxamide;formic acid] | 330
